The values below come from the supplement of paper PMC10307832.

Common to all, as to test: relative viability (nuclei count vs DMSO), 5 days (fraction); higher = more cells survive
Compound in experiment [1]: CC1CC(=O)N(C2=CN=C(N=C2N1C3CCCC3)NC4=C(C=C(C=C4)C(=O)NC5CCN(CC5)C)OC)C [NPK76-II-72-1] + COc1cc2c(Oc3ccc(NC(=O)C4(C(=O)Nc5ccc(F)cc5)CC4)cc3F)ccnc2cc1OCCCN1CCOCC1 [Foretinib] (partner 0.25 µM)
In outline:
(§1)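 Dosing by pin tool came one day after lung cancer cell lines were seeded in 1536-well plates, using either one drug or a fixed anchor-drug dose plus five library-drug doses (not always all listed) in √10 steps. After 5 days, nuclei were counted on 4× images. Relative viability is treated-well nuclei count divided by vehicle-well nuclei count, and values are medians of duplicate plates.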

Compound in the experiment “BI-2536 + Pictilisib”: CC[C@@H]1C(=O)N(C)c2cnc(Nc3ccc(C(=O)NC4CCN(C)CC4)cc3OC)nc2N1C1CCCC1 [BI-2536] + CS(=O)(=O)N1CCN(Cc2cc3nc(-c4cccc5[nH]ncc45)nc(N4CCOCC4)c3s2)CC1 [Pictilisib] (partner 1 µM)
In a few lines: as §1

Compound in the experiment “BI-2536 + Crizotinib”: CC[C@@H]1C(=O)N(C)c2cnc(Nc3ccc(C(=O)NC4CCN(C)CC4)cc3OC)nc2N1C1CCCC1 [BI-2536] + C[C@@H](Oc1cc(-c2cnn(C3CCNCC3)c2)cnc1N)c1c(Cl)ccc(F)c1Cl [Crizotinib] (partner 1 µM)
In a few lines: as §1

Compound in the experiment “BI-2536 + Linsitinib”: CC[C@@H]1C(=O)N(C)c2cnc(Nc3ccc(C(=O)NC4CCN(C)CC4)cc3OC)nc2N1C1CCCC1 [BI-2536] + C[C@]1(O)C[C@@H](c2nc(-c3ccc4ccc(-c5ccccc5)nc4c3)c3c(N)nccn32)C1 [Linsitinib] (partner 1 µM)
In outline:
as §1

For the cell line UMC-11, the relative viability in experiment [1] (first compound 0.01 µM) is 0.988; in experiment [1] (first compound 0.03162 µM), 1.06; in experiment [1] (first compound 0.1 µM), 1.06; in experiment [1] (first compound 1 µM) it was 0.95; with BI-2536 + Pictilisib (first compound 0.01 µM) it was 0.851; with BI-2536 + Pictilisib (first compound 0.03162 µM) it was 0.647. Besides, the relative viability was 0.11 with BI-2536 + Pictilisib (first compound 0.1 µM); 0.153 with BI-2536 + Pictilisib (first compound 0.3162 µM); 0.14 in the experiment with BI-2536 + Pictilisib (first compound 1 µM); 0.48 with BI-2536 + Crizotinib (first compound 0.01 µM); 0.237 with BI-2536 + Crizotinib (first compound 0.03162 µM); 0.148 with BI-2536 + Crizotinib (first compound 0.1 µM). Also, the relative viability in the experiment with BI-2536 + Crizotinib (first compound 0.3162 µM) worked out at 0.133; with BI-2536 + Crizotinib (first compound 1 µM) it was 0.1; in the experiment with BI-2536 + Linsitinib (first compound 0.01 µM), 1.02; with BI-2536 + Linsitinib (first compound 0.03162 µM), 0.967; with BI-2536 + Linsitinib (first compound 0.1 µM), 0.841; in the experiment with BI-2536 + Linsitinib (first compound 0.3162 µM), 0.207. In the experiment with BI-2536 + Linsitinib (first compound 1 µM), the relative viability amounted to 0.172.
